Data taken from the supplement of paper PMC10307832.

Legend:
Test in all cases: relative viability (nuclei count vs DMSO), 5 days (fraction); higher = more cells survive
[1] = compound: CC1=C(CC(=O)O)c2cc(F)ccc2/C1=C\c1ccc([S+](C)[O-])cc1 [Sulindac] + COc1cccc2cc(-c3nc([C@H]4CC[C@H](C(=O)O)CC4)n4ncnc(N)c34)[nH]c12 [OSI-027] (partner 0.5 µM)
In short: (§1)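 Relative viability divides the nuclei count in treated wells by that in vehicle wells. Lung cancer cell lines were seeded in 1536-well plates, dosed by pin tool the next day, and fixed and stained after 5 days in one step with final 0.05% Triton X-100, 1% formaldehyde and 1 ug/ml Hoechst. Dosing was a single drug or a fixed anchor-drug dose plus five library-drug doses (not always all listed) in √10 steps, and values are medians of duplicate plates imaged at 4×.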

[2] = compound: CC1=C(CC(=O)O)c2cc(F)ccc2/C1=C\c1ccc([S+](C)[O-])cc1 [Sulindac] + Nc1nc2[nH]cc(CCc3ccc(C(=O)N[C@@H](CCC(=O)O)C(=O)O)cc3)c2c(=O)[nH]1 [Pemetrexed] (partner 0.2 µM)
In short: as §1

[3] = compound: CC1=C(CC(=O)O)c2cc(F)ccc2/C1=C\c1ccc([S+](C)[O-])cc1 [Sulindac] + O=C(CCCCCCC(=O)Nc1ccccc1)NO [Vorinostat] (partner 1 µM)
In short: as §1

[4] = compound: CN[C@@H]1C[C@H]2O[C@@](C)([C@@H]1OC)n1c3ccccc3c3c4c(c5c6ccccc6n2c5c31)C(=O)NC4 [Staurosporine] + CS(=O)(=O)N1CCN(Cc2cc3nc(-c4cccc5[nH]ncc45)nc(N4CCOCC4)c3s2)CC1 [Pictilisib] (partner 1 µM)
In short: as §1

| Cell Line | relative viability ([1]; first compound 0.08 µM) | relative viability ([1]; first compound 0.253 µM) | relative viability ([1]; first compound 0.8 µM) | relative viability ([1]; first compound 2.53 µM) | relative viability ([1]; first compound 8 µM) | relative viability ([2]; first compound 0.08 µM) | relative viability ([2]; first compound 0.253 µM) | relative viability ([2]; first compound 0.8 µM) | relative viability ([2]; first compound 2.53 µM) | relative viability ([2]; first compound 8 µM) | relative viability ([3]; first compound 0.08 µM) | relative viability ([3]; first compound 0.253 µM) | relative viability ([3]; first compound 0.8 µM) | relative viability ([3]; first compound 2.53 µM) | relative viability ([3]; first compound 8 µM) | relative viability ([4]; first compound 0.005 µM) | relative viability ([4]; first compound 0.05 µM) | relative viability ([4]; first compound 0.1581 µM) | relative viability ([4]; first compound 0.5 µM) | relative viability ([4]; first compound 0.01581 µM) |
| --- | --- | --- | --- | --- | --- | --- | --- | --- | --- | --- | --- | --- | --- | --- | --- | --- | --- | --- | --- | --- |
| HCC-15 | 0.77 | 0.716 | 0.526 | 0.634 | 0.667 | 0.213 | 0.223 | 0.209 | 0.22 | 0.235 | 0.94 | 0.885 | 0.738 | 0.835 | 0.975 | 0.718 | 0.566 | 0.216 | 0.113 |  |
| HCC-44 | 0.463 | 0.592 |  | 0.519 | 0.734 | 0.663 | 0.695 | 0.667 | 0.632 | 0.646 | 1.14 | 1.1 | 1.14 | 1.1 | 1.1 | 0.147 | 0.13 | 0.133 | 0.131 | 0.152 |
| HCC-78 | 0.385 | 0.395 | 0.399 | 0.329 | 0.381 | 0.923 | 0.878 | 0.751 | 0.924 | 0.953 | 0.363 | 0.415 | 0.433 | 0.455 | 0.462 | 0.212 | 0.178 | 0.223 | 0.206 | 0.175 |
| HCC-366 | 1.33 | 1.11 | 0.947 | 0.836 | 0.964 | 0.205 | 0.183 |  | 0.14 | 0.172 | 0.365 | 0.333 |  | 0.351 | 0.416 | 0.106 | 0.0691 | 0.0727 | 0.0401 | 0.0757 |
| HCC-827 | 0.913 | 0.777 | 0.573 | 0.798 | 0.761 | 0.286 | 0.282 | 0.249 | 0.241 | 0.26 | 0.908 | 0.935 | 0.743 | 0.805 | 0.88 | 1.24 | 0.559 | 0.552 | 0.43 | 0.812 |
| HOP-62 | 0.825 | 0.976 |  | 0.946 | 0.91 | 0.412 | 0.27 | 0.31 | 0.258 | 0.389 | 0.826 | 0.88 | 0.526 | 0.598 | 0.796 | 0.182 | 0.0986 | 0.0751 | 0.0641 | 0.0895 |
| IA-LM |  |  |  |  |  |  |  |  |  |  | 1.07 | 1.21 |  | 0.913 | 0.981 | 0.266 | 0.256 | 0.0809 | 0.0459 | 0.323 |
| LC-2-ad | 0.763 | 0.986 | 0.686 | 0.701 | 0.776 | 0.29 | 0.27 | 0.273 | 0.263 | 0.254 | 0.833 | 0.843 | 0.669 | 0.693 | 0.821 | 0.591 | 0.143 | 0.0807 | 0.0527 | 0.159 |
| NCI-H522 | 0.788 | 0.777 | 0.666 | 0.62 | 0.645 | 0.859 | 0.985 | 1.05 | 0.88 | 0.96 | 0.673 | 0.829 | 0.747 | 0.906 | 0.964 |  |  |  |  |  |
| NCI-H727 | 0.561 | 0.538 |  | 0.537 | 1 |  |  |  |  |  | 1.35 | 1.21 | 0.998 | 1.18 | 1.24 | 0.486 | 0.2 | 0.223 | 0.12 | 0.293 |
| NCI-H1299 |  |  |  |  |  |  |  |  |  |  |  |  |  |  |  | 0.121 | 0.109 | 0.0457 | 0.0455 | 0.119 |
| NCI-H1563 | 0.754 | 0.784 | 0.762 | 0.703 | 0.784 | 0.736 | 0.748 | 0.683 | 0.758 | 0.945 |  |  |  |  |  | 0.749 | 0.577 | 0.498 | 0.433 | 0.594 |
| NCI-H1623 | 0.401 | 0.427 | 0.415 | 0.409 | 0.421 |  |  |  |  |  |  |  |  |  |  |  |  |  |  |  |
| NCI-H1648 | 0.25 | 0.242 | 0.298 | 0.268 | 0.265 | 0.889 | 0.781 |  | 0.569 | 0.787 | 0.44 | 0.318 |  | 0.402 | 0.512 |  |  |  |  |  |
| NCI-H1703 |  |  |  |  |  |  |  |  |  |  |  |  |  |  |  | 0.223 | 0.191 | 0.163 | 0.114 | 0.175 |
| NCI-H1792 | 0.848 | 0.884 |  | 0.815 | 0.899 | 0.867 | 0.903 |  | 0.794 | 0.827 |  |  |  |  |  | 0.25 | 0.0905 | 0.106 |  | 0.0859 |
| NCI-H2342 | 0.591 | 0.578 | 0.546 | 0.618 | 0.694 | 0.742 | 0.714 | 0.739 | 0.746 | 0.781 | 0.791 | 0.774 | 0.619 | 0.669 | 0.791 |  |  |  |  |  |
| SW 900 |  | 0.566 |  | 0.42 | 0.555 | 0.532 | 0.492 |  |  | 0.453 | 0.553 | 0.47 |  |  | 0.578 |  |  |  |  |  |
